Experimental data: patent US20250186532A1, “SHINE MUSCAT JELLY HAVING HIGH SENSORY APPEAL AND EXCELLENT ANTIOXIDANT AND ANTITHROMBOTIC ACTIVITIES, AND METHOD OF PREPARING SAME” (Andong National University Industry-Academic Cooperation …, priority 2023, published 2025)

Experiments:
prothrombin = assay: Prothrombin time (blood coagulation inhibitory activity); format: biochemical
Protocol: (§1) An antithrombotic activity was measured for the three types of jellies prepared in Example 3, and the results are shown in Table 5. At this time, the blood coagulation inhibitory activity evaluation method was in accordance with the previously reported method (Sohn et al., 2004. Kor. J. Pharmacogn 35. 52-61; Kwon et al., 2004. J. Life Science, 14. 509-513; Ryu et al. 2010. J. Life Science, 20. 922-928). Experiments were conducted to measure thrombin time, prothrombin time, and activated Partial Thromboplastin Time (aPTT). For plasma, commercially available control plasma (MD Pacific Technology Co., Ltd, Huayuan Industrial Area, China) was used. The thrombin time, prothrombin time, and aPTT measurements were performed as follows.
At a temperature of 37° C., 70 μl of standard plasma (MD Pacific Co., China) and 10 μl of sample solutions of various concentrations were added into the tube of Amelung coagulometer KC-1A (Japan) and heated for 3 minutes. Thereafter, 130 μl of PT reagent was added thereto. Afterward, the time until the plasma coagulated was expressed as an average value of the experiments repeated three times. Aspirin (Sigma Co., USA) was used as a control. […] A prothrombin inhibitory activity was expressed as the coagulation time upon sample addition divided by the coagulation time upon the solvent control addition.

blood coagulation factor = assay: Activated Partial Thromboplastin Time (aPTT); format: biochemical
Protocol: as §1
Activated Partial Thromboplastin Time (aPTT)
At a temperature of 37° C., 100 μl of plasma and 10 μl of sample extracts of various concentrations were added to the tube of Amelung coagulometer KC-1A (Japan) and heated for 3 minutes. Thereafter, 50 μl of aPTT reagent (Sigma, ALEXIN™) was added thereto. […] Afterward, the time until the plasma coagulated was measured. […] The results of aPTT were expressed as an average value of three repeated experiments. A blood coagulation factor inhibitory activity was expressed as the aPTT upon sample addition divided by the aPTT upon the solvent control addition.

thrombin = biological target: T1, thrombin (Homo sapiens, UniProt P00734); assay: Thrombin time (blood coagulation inhibitory activity); format: biochemical
T1 construct: 50 μl of 0.5 U thrombin (Sigma Co., USA); purchased Sigma Co., USA
Protocol: as §1
At a temperature of 37° C., 50 μl of 0.5 U thrombin (Sigma Co., USA), 50 μl of 20 mM CaCl2), and 10 μl of sample extracts of various concentrations were mixed in a tube of Amelung coagulometer KC-1A (Japan), and reacted for 2 minutes. Thereafter, 100 μl of plasma was added thereto. Afterward, the time until the plasma coagulated was measured. Aspirin (Sigma Co., USA) was used as a control. […] The thrombin inhibition effect was expressed as an average value of experiments repeated more than three times. A thrombin inhibitory activity was expressed as the coagulation time upon sample addition divided by the coagulation time upon the solvent control addition.

[1] = Nitrite scavenging ability (Griess reagent); conditions: 0.2 mg/ml; nitrite solution 1 mM, pH 1.2, 37° C., 1 hour
Protocol: To measure the nitrite scavenging ability, a sample solution was added to the nitrite solution (1 mM), and 0.1 N HCl was further added thereto to adjust the pH of the mixture to 1.2. Thereafter, the mixture was reacted at a temperature of 37° C. for 1 hour, and then Griess reagent (Sigma Co., USA) was added, and the resulting solution was mixed. After leaving the resulting solution at room temperature for 15 minutes, the amount of remaining nitrite was measured by measuring absorbance at a wavelength of 520 nm. The nitrite scavenging ability (%) was calculated using the following equation.

[2] = compared to the untreated group, aspirin at 1.5 mg/ml

Compound	Blood coagulation inhibitory activity, Prothrombin time (prothrombin; coagulation time upon sample addition / upon DMSO addition, standard plasma, 37° C., aspirin 1.5 mg/ml, concentration not given for jellies)	extension of prothrombin time (prothrombin; [2]) [times]	Blood coagulation inhibitory activity, aPTT (blood coagulation factor; aPTT upon sample addition / upon DMSO addition, plasma, 37° C., aspirin 1.5 mg/ml, concentration not given for jellies)	extension of aPTT (blood coagulation factor; [2]) [times]	Blood coagulation inhibitory activity, Thrombin time (thrombin; coagulation time upon sample addition / upon DMSO addition, control plasma, 37° C., aspirin 1.5 mg/ml, concentration not given for jellies)	extension of thrombin time (thrombin; [2]) [times]	Nitrite scavenging ability [1] [%]
CC(=O)Oc1ccccc1C(=O)O [Aspirin]	1.30 ± 0.02	1.30	1.33 ± 0.02	1.33	1.26 ± 0.00	1.26	–
O=C1O[C@H]([C@@H](O)CO)C(O)=C1O [Vitamin C]	–	–	–	–	–	–	62.5 ± 0.1
